# Several values for one entry are separate records, joined by “and”; a condition that tells them apart may be missing. Equal values may be shown once. ± gives the expanded uncertainty stated by the source.
# Details: Crystal
smiles,measurement,setting,value
[Cl-].[Cl-].[Ga+2] [gallium(II) chloride],vapor or sublimation pressure,372 K,4.571e-05 ± 9.2e-06 kPa
same,vapor or sublimation pressure,374 K,3.09e-05 ± 6.2e-06 kPa
same,vapor or sublimation pressure,375 K,6.166e-05 ± 1.2e-05 kPa and 4.571e-05 ± 9.2e-06 kPa and 3.388e-05 ± 6.8e-06 kPa
same,vapor or sublimation pressure,378 K,4.571e-05 ± 9.2e-06 kPa
same,vapor or sublimation pressure,378.5 K,6.166e-05 ± 1.2e-05 kPa
same,vapor or sublimation pressure,379 K,9.12e-05 ± 1.8e-05 kPa
same,vapor or sublimation pressure,381 K,7.762e-05 ± 1.6e-05 kPa
same,vapor or sublimation pressure,381.5 K,6.761e-05 ± 1.4e-05 kPa
same,vapor or sublimation pressure,382.5 K,9.12e-05 ± 1.8e-05 kPa
same,vapor or sublimation pressure,383.5 K,0.0001202 ± 2.4e-05 kPa
same,vapor or sublimation pressure,384 K,0.0001202 ± 2.4e-05 kPa and 0.000123 ± 2.5e-05 kPa
same,vapor or sublimation pressure,385 K,0.0001072 ± 2.2e-05 kPa
same,vapor or sublimation pressure,386 K,0.0001514 ± 3e-05 kPa and 0.0001778 ± 3.6e-05 kPa
same,vapor or sublimation pressure,386.5 K,0.000123 ± 2.5e-05 kPa and 0.0001023 ± 2.1e-05 kPa
same,vapor or sublimation pressure,387 K,0.0001862 ± 3.7e-05 kPa
same,vapor or sublimation pressure,387.5 K,0.000123 ± 2.5e-05 kPa
same,vapor or sublimation pressure,388.5 K,0.0001778 ± 3.6e-05 kPa
same,vapor or sublimation pressure,389 K,0.0002089 ± 4.2e-05 kPa
same,vapor or sublimation pressure,390 K,0.0002399 ± 4.8e-05 kPa
same,vapor or sublimation pressure,390.5 K,0.0001549 ± 3.1e-05 kPa
same,vapor or sublimation pressure,391 K,0.0001698 ± 3.4e-05 kPa and 0.0001862 ± 3.7e-05 kPa
same,vapor or sublimation pressure,391.5 K,0.0002399 ± 4.8e-05 kPa and 0.0002754 ± 5.5e-05 kPa
same,vapor or sublimation pressure,392 K,0.000302 ± 6e-05 kPa
same,vapor or sublimation pressure,393 K,0.0001862 ± 3.7e-05 kPa
same,vapor or sublimation pressure,393.5 K,0.000302 ± 6.1e-05 kPa
same,vapor or sublimation pressure,394 K,0.0002455 ± 4.9e-05 kPa and 0.0003311 ± 6.6e-05 kPa and 0.0002138 ± 4.3e-05 kPa
same,vapor or sublimation pressure,395 K,0.0002754 ± 5.5e-05 kPa
same,vapor or sublimation pressure,396 K,0.0002951 ± 5.9e-05 kPa
same,vapor or sublimation pressure,396.5 K,0.000309 ± 6.2e-05 kPa
same,vapor or sublimation pressure,397.5 K,0.000389 ± 7.8e-05 kPa and 0.0005248 ± 0.00011 kPa
same,vapor or sublimation pressure,398 K,0.0002951 ± 5.9e-05 kPa and 0.0004169 ± 8.3e-05 kPa and 0.0004467 ± 8.9e-05 kPa
same,vapor or sublimation pressure,398.5 K,0.0004786 ± 9.6e-05 kPa
same,vapor or sublimation pressure,399 K,0.0003388 ± 6.8e-05 kPa and 0.0004786 ± 9.6e-05 kPa
same,vapor or sublimation pressure,399.5 K,0.0003802 ± 7.6e-05 kPa and 0.0003981 ± 8e-05 kPa and 0.000302 ± 6.1e-05 kPa
same,vapor or sublimation pressure,401 K,0.0005129 ± 0.0001 kPa
same,vapor or sublimation pressure,402 K,0.0007244 ± 0.00014 kPa and 0.0007413 ± 0.00015 kPa
same,vapor or sublimation pressure,402.5 K,0.0006607 ± 0.00013 kPa and 0.000389 ± 7.8e-05 kPa
same,vapor or sublimation pressure,403 K,0.0006607 ± 0.00013 kPa and 0.0004786 ± 9.6e-05 kPa
same,vapor or sublimation pressure,403.5 K,0.0005495 ± 0.00011 kPa
same,vapor or sublimation pressure,404 K,0.0007762 ± 0.00016 kPa
same,vapor or sublimation pressure,405 K,0.0006761 ± 0.00014 kPa and 0.0005888 ± 0.00012 kPa
same,vapor or sublimation pressure,405.5 K,0.0007762 ± 0.00016 kPa
same,vapor or sublimation pressure,406 K,0.000955 ± 0.00019 kPa and 0.0006761 ± 0.00014 kPa
same,vapor or sublimation pressure,406.5 K,0.0008913 ± 0.00018 kPa
same,vapor or sublimation pressure,407.5 K,0.000955 ± 0.00019 kPa and 0.0007762 ± 0.00016 kPa
same,vapor or sublimation pressure,408 K,0.0007079 ± 0.00014 kPa
same,vapor or sublimation pressure,409 K,0.0007762 ± 0.00016 kPa and 0.001023 ± 0.0002 kPa and 0.0007079 ± 0.00014 kPa
same,vapor or sublimation pressure,410 K,0.001202 ± 0.00024 kPa
same,vapor or sublimation pressure,410.5 K,0.000871 ± 0.00017 kPa and 0.001259 ± 0.00025 kPa and 0.001072 ± 0.00021 kPa
same,vapor or sublimation pressure,411 K,0.001023 ± 0.0002 kPa
same,vapor or sublimation pressure,411.5 K,0.001318 ± 0.00026 kPa and 0.001549 ± 0.00031 kPa
same,vapor or sublimation pressure,413 K,0.0009772 ± 0.0002 kPa and 0.001445 ± 0.00029 kPa
same,vapor or sublimation pressure,413.5 K,0.001514 ± 0.0003 kPa and 0.001445 ± 0.00029 kPa
same,vapor or sublimation pressure,414 K,0.001202 ± 0.00024 kPa and 0.001259 ± 0.00025 kPa and 0.001072 ± 0.00021 kPa
same,vapor or sublimation pressure,414.5 K,0.001288 ± 0.00026 kPa
same,vapor or sublimation pressure,415 K,0.002138 ± 0.00043 kPa
same,vapor or sublimation pressure,415.5 K,0.001259 ± 0.00025 kPa and 0.001905 ± 0.00038 kPa and 0.001862 ± 0.00037 kPa
same,vapor or sublimation pressure,416 K,0.001413 ± 0.00028 kPa and 0.001778 ± 0.00036 kPa
same,vapor or sublimation pressure,416.5 K,0.001905 ± 0.00038 kPa and 0.001549 ± 0.00031 kPa and 0.001288 ± 0.00026 kPa
same,vapor or sublimation pressure,417 K,0.001585 ± 0.00032 kPa and 0.001549 ± 0.00031 kPa
same,vapor or sublimation pressure,417.5 K,0.002089 ± 0.00042 kPa and 0.001698 ± 0.00034 kPa
same,vapor or sublimation pressure,418 K,0.002138 ± 0.00043 kPa
same,vapor or sublimation pressure,418.5 K,0.002399 ± 0.00048 kPa
same,vapor or sublimation pressure,419 K,0.002399 ± 0.00048 kPa and 0.002138 ± 0.00043 kPa
same,vapor or sublimation pressure,420 K,0.00195 ± 0.00039 kPa and 0.00263 ± 0.00053 kPa
same,vapor or sublimation pressure,421 K,0.003388 ± 0.00068 kPa and 0.002138 ± 0.00043 kPa
same,vapor or sublimation pressure,421.5 K,0.002138 ± 0.00043 kPa and 0.00302 ± 0.0006 kPa and 0.002951 ± 0.00059 kPa
same,vapor or sublimation pressure,422 K,0.002138 ± 0.00043 kPa and 0.002344 ± 0.00047 kPa
same,vapor or sublimation pressure,422.5 K,0.003236 ± 0.00065 kPa and 0.00302 ± 0.0006 kPa
same,vapor or sublimation pressure,423.5 K,0.002291 ± 0.00046 kPa
same,vapor or sublimation pressure,424 K,0.003802 ± 0.00076 kPa
same,vapor or sublimation pressure,424.5 K,0.002512 ± 0.0005 kPa and 0.002818 ± 0.00056 kPa
same,vapor or sublimation pressure,425.5 K,0.004266 ± 0.00085 kPa
same,vapor or sublimation pressure,426 K,0.003981 ± 0.0008 kPa [middle of 5 runs]
same,vapor or sublimation pressure,427 K,0.002754 ± 0.00055 kPa
same,vapor or sublimation pressure,427.5 K,0.004571 ± 0.00091 kPa and 0.003467 ± 0.00069 kPa
same,vapor or sublimation pressure,428 K,0.003236 ± 0.00065 kPa
same,vapor or sublimation pressure,428.5 K,0.003388 ± 0.00068 kPa and 0.004677 ± 0.00094 kPa
same,vapor or sublimation pressure,429 K,0.005248 ± 0.001 kPa and 0.005129 ± 0.001 kPa
same,vapor or sublimation pressure,430 K,0.004365 ± 0.00087 kPa and 0.005248 ± 0.001 kPa and 0.003311 ± 0.00066 kPa
same,vapor or sublimation pressure,430.5 K,0.006026 ± 0.0012 kPa
same,vapor or sublimation pressure,431 K,0.003715 ± 0.00074 kPa
same,vapor or sublimation pressure,432 K,0.006457 ± 0.0013 kPa and 0.006761 ± 0.0014 kPa
same,vapor or sublimation pressure,432.5 K,0.004365 ± 0.00087 kPa
same,vapor or sublimation pressure,433 K,0.007079 ± 0.0014 kPa
same,vapor or sublimation pressure,434 K,0.006026 ± 0.0012 kPa and 0.005495 ± 0.0011 kPa
same,vapor or sublimation pressure,435.5 K,0.007943 ± 0.0016 kPa
same,vapor or sublimation pressure,436 K,0.005623 ± 0.0011 kPa and 0.008318 ± 0.0017 kPa and 0.005495 ± 0.0011 kPa
same,vapor or sublimation pressure,437 K,0.008913 ± 0.0018 kPa
same,vapor or sublimation pressure,438 K,0.007586 ± 0.0015 kPa
same,vapor or sublimation pressure,439 K,0.01 ± 0.002 kPa
same,vapor or sublimation pressure,440 K,0.01096 ± 0.0022 kPa and 0.01072 ± 0.0021 kPa
same,vapor or sublimation pressure,441 K,0.00871 ± 0.0017 kPa and 0.007762 ± 0.0016 kPa
